# Measured values reported in patent publication US5166214A, “Use of imidazoles for the treatment of atherosclerosis” (priority 1990, dated 1992).
# Tested on: murine macrophage-like cell line J774.A1
# Assay: Inhibition of cholesterol esterification in mammalian cells (macrophage assay)
# Assay type: cell-based
# Conditions: J774.A1 macrophages loaded with ac-LDL, 14C-oleic acid; read-out: Cholesterol Esterification IC50
# Method: B. Assay of the Inhibition of Cholesterol Esterification in Mammalian Cells
# The esterification of cholesterol was determined in the murine macrophage-like cell line J774.A1. Cells were seeded in 35 mm wells at a density of 300,000 cells per well in 2 mls of Dulbecco's Eagle Medium (DMEM) supplemented with 10% fetal bovine serum (FBS). Cells were incubated at 37° C. in an atmosphere of 5% CO2 and 93% humidity. After 24 hours the media was changed to 0.68 mls 10% FBS-DMEM containing 34 μg of acetylated human low density lipoprotein (ac-LDL) to increase the intracellular concentration of cholesterol and promote esterification. At 41 hours, various inhibitors were added to the cells in DMSO (10 μl/ml maximum). At 43 hours, the cells were pulsed with 0.1 mM ^14 C-oleic acid (10,000 dpm/nmol) complexed with BSA (bovine serum albumin) to follow cholesterol ester formation. The experiment was terminated at 45 hours by washing the monolayers 3 times with 3 ml of Tris-buffered saline at 4° C. The lipids were extracted by incubating the monolayers with 1.5 ml of hexane:isopropanol (3:2, v/v) for 30 min. under gentle agitation. During this period, 10,000 dpm 3H-cholesteryl linoleate and 10 μg of cholesteryl oleate were added as an internal standard and carrier respectively. The organic solvent was removed and the cells were washed with an additional 1.0 ml of hexane: isopropanol which was combined with the original extract. The cells were allowed to dry overnight, digested with 1.5 ml of 0.2N sodium hydroxide for 1 hour and an aliquot of the solubilized protein used for protein determination using the Lowry method. The organic extract was taken to dryness, the residue resuspended in 100 μl of chloroform and the lipids separated on silica gel impregnated glass fiber plates using a hexane:diethylether:acetic acid (170:30:1, v/v/v) solvent system. Individual lipids were visualized with iodine and the cholesteryl ester spot cut out and transferred to scintillation vials to determine the amount of radioactivity. The conversion of oleic acid to cholesteryl ester in the control averaged 0.54 […] and was increased upon the addition of ac-LDL to about 10.69±0.69 […]. […] It should be noted that many of the intermediates had inhibitory activity in the in vitro ACAT assay and in the macrophage assay.
row,SMILES,IC50
1,"CCCCCCCN(CCCCCCCCSc1nc(-c2ccccc2)c(-c2ccccc2)[nH]1)C(=O)Nc1ccc(F)cc1F [Example 3, N'-(2,4-difluorophenyl)-N-[8-(4,5-diphenyl-1H-imidazol-2-ylthio)octyl]-N-heptylurea]",17500 nM
2,"CCCCCCCN(CCCCCSc1nc(-c2ccccc2)c(-c2ccccc2)n1C)C(=O)Nc1ccc(F)cc1F [Example 6, N'-(2.4-difluorophenyl)-N-heptyl-N-[5-(1-methyl-4,5-diphenyl-1H-imidazol-2-ylthio)pentyl]urea]",3800 nM
3,"CCCCCCCN(CCCCCSc1nc(-c2ccccc2)c(-c2ccccc2)[nH]1)C(=O)NCCC [Example 8, N-[5-(4,5-diphenyl-1H-imidazol-2-ylthio)pentyl]-N-heptyl-N'-propylurea]",500 nM
4,"CCCCCCCN(CCCCCSc1nc(-c2ccccc2)c(-c2ccccc2)[nH]1)C(=O)Nc1c(F)cc(F)cc1F [Example 71, N-[5-(4,5-diphenyl-1H-imidazol-2-ylthio)pentyl]-N-heptyl-N'-(2,4,6-trifluorophenyl)urea]",1900 nM
5,"CCCCCCCN(CCCCCSc1nc(-c2ccccc2)c(-c2ccccc2)[nH]1)C(=O)NC1CCCCC1 [Example 94, N'-cyclohexyl-N-[5-(4,5-diphenyl-1H-imidazol-2-ylthio)pentyl]-N-heptylurea]",100 nM
6,"CCCCCCCN(CCCCCSc1nc(-c2ccccc2)c(-c2ccccc2)[nH]1)C(=O)NC(C)C [Example 105, N-[5-(4,5-diphenyl-1H-imidazol-2-ylthio)pentyl]-N-heptyl-N'-(1-methylethyl)urea]",300 nM
7,"CCCCCCCN(CCCCCSc1nc(-c2ccccc2)c[nH]1)C(=O)Nc1ccc(F)cc1F [Example 160, N'-(2,4-difluorophenyl)-N-heptyl-N-[5-(4-phenyl-1H-imidazol-2-ylthio)pentyl]urea]",1600 nM
8,"CCCCCCCN(CCSc1nc(-c2ccccc2)c(-c2ccccc2)[nH]1)C(=O)Nc1ccc(F)cc1F [Example 189, N'-(2,4-difluorophenyl)-N-[2-(4,5-diphenyl-1H-imidazol-2-ylthio)ethyl]-N-heptylurea]",2200 nM
9,CCCN(CCCCCSc1nc(-c2ccccc2)c(-c2ccccc2)[nH]1)C(=O)Nc1ccc(F)cc1F [Example 190],2200 nM
10,"CCCCCCCN(CCCCCSc1nc(-c2ccccc2)c(-c2ccccc2)[nH]1)C(=O)Nc1ccc(-c2ccccc2)cc1 [Example 192, N'-[(1,1'-biphenyl)-4-yl]-N-[5-(4,5-diphenyl-1H-imidazol-2-ylthio)pentyl]-N-heptylurea]",2000 nM
11,CCCCCCCN(CCCCCSc1nc(-c2ccc(C(C)(C)C)cc2)c(-c2ccc(C(C)(C)C)cc2)[nH]1)C(=O)Nc1ccc(F)cc1F [Example 203],50000 nM
12,"CCCCCCCCNC(=O)N(CCCCCSc1nc(-c2ccccc2)c(-c2ccccc2)[nH]1)c1ccc(F)cc1F [Example 206, N-(2,4-difluorophenyl)-N-[5-(4,5-diphenyl-1H-imidazol-2-ylthio)pentyl]-N'-octylurea]",400 nM
13,CCCCCCCCNC(=O)N(CCCCCSc1nc(-c2ccccc2)c(-c2ccccc2)[nH]1)c1c(F)cc(F)cc1F [Example 208],2800 nM
14,CCCCCCCN(CCCCCSc1nc(-c2ccccc2)cn1-c1ccccc1)C(=O)Nc1ccc(F)cc1F [Example 259],900 nM
15,CCCCCCCN(CCCCCSc1ncc(-c2ccccc2)n1-c1ccccc1)C(=O)Nc1ccc(F)cc1F [Example 260],6000 nM
16,"CCCCCCCN(CCCCCSc1nc(-c2ccccc2)c(-c2ccccc2)[nH]1)C(=S)Nc1ccc(F)cc1F [Example 276, N'-(2,4-difluorophenyl)-N-[5-(4,5-diphenyl-1H-imidazol-2-ylthio)pentyl]-N-heptylthiourea]",6100 nM
17,"CCCCCCCN(CCCCC[S+]([O-])c1nc(-c2ccccc2)c(-c2ccccc2)[nH]1)C(=O)Nc1ccc(F)cc1F (centres unmarked) [Example 278, N'-(2,4-difluorophenyl)-N-[5-(4,5-diphenyl-1H-imidazol-2-ylsulfinyl)pentyl]-N-heptylurea]",1200 nM
18,"CCCCCCCN(CCCCCS(=O)(=O)c1nc(-c2ccccc2)c(-c2ccccc2)[nH]1)C(=O)Nc1ccc(F)cc1F [Example 281, N'-(2,4-difluorophenyl)-N-[5-[(4,5-diphenyl-1H-imidazol-2-yl)sulfonyl]pentyl]-N-heptylurea]",3500 nM
19,"CCCCCCCN(CCCCCSc1nc(-c2ccccc2)c(-c2ccccc2)[nH]1)C(=S)Nc1c(F)cc(F)cc1F [Example 298, N-[5-(4,5-diphenyl-1H-imidazol-2-ylthio)pentyl]-N-heptyl-N'-(2,4,6-trifluorophenyl)thiourea]",2500 nM
20,"CCCCCCCN(CCCCCNc1nc(-c2ccccc2)c(-c2ccccc2)[nH]1)C(=O)Nc1ccc(F)cc1F [Example 338, N'-(2,4-difluorophenyl)-N-[5-(4,5-diphenyl-1H-imidazol-2-ylamino)pentyl]-N-heptylurea]",3400 nM
21,"CCCCCCCN(CCCCCCc1nc(-c2ccccc2)c(-c2ccccc2)[nH]1)C(=O)Nc1ccc(F)cc1F [Example 339, N'-(2,4-difluorophenyl)-N-[6-(4,5-diphenyl-1H-imidazol-2-yl)hexyl]-N-heptylurea]",4400 nM
22,"CCCCCCCN(CCCCCSc1nc(-c2ccccc2)c(-c2ccccc2)[nH]1)C(=O)Cc1ccc(F)cc1F [Example 340, 2,4-difluoro-N-[(5-(4,5-diphenyl-1H-imidazol-2-ylthio)pentyl)]-N-heptylbenzeneacetamide]",200 nM
23,"CCCCCCCN(CCCCCSc1nc(-c2ccccc2)c(-c2ccccc2)[nH]1)C(=O)Cc1ccc(-c2ccccc2)cc1 [Example 343, N-[5-(4,5-diphenyl-1H-imidazol-2-ylthio)pentyl]-N-heptyl[1,1'-biphenyl]-4-acetamide]",1100 nM
24,CCCCCCCN(CCCCCSc1nc(-c2ccccc2)c(-c2ccccc2)[nH]1)C(=O)CC1CCCCC1 [Example 344],400 nM
25,CCCCCCCN(CCCCCSc1nc(-c2ccccc2)c(-c2ccccc2)[nH]1)C(=O)c1ccc(F)cc1F [Example 345],300 nM
26,CCCCCCCN(CCCCCSc1nc(-c2ccccc2)c(-c2ccccc2)[nH]1)C(=O)c1ccccc1 [Example 346],500 nM
27,"CCCCCCCN(CCCCCSc1nc(-c2ccccc2)c(-c2ccccc2)[nH]1)C(=O)OC1CCCCC1 [Example 401, cyclohexyl [5-(4,5-diphenyl-1H-imidazol-2-ylthio)pentyl]heptylcarbamate]",400 nM
28,"CCCCCCCN(CCCCCSc1nc(-c2ccccc2)c(-c2ccccc2)[nH]1)C(=O)Oc1ccccc1 [Example 402, Phenyl [5-(4,5-diphenyl-1H-imidazol-2-ylthio)pentyl]heptylcarbamate]",400 nM
29,"CCCCCCCN(CCCCCSc1nc(-c2ccccc2)c(-c2ccccc2)[nH]1)C(=N)Nc1ccccc1 [Example 499, N-[5-(4,5-diphenyl-1H-imidazol-2-ylthio)-pentyl]-N-heptyl-N'-phenylguanidine]",3400 nM
